# Test results from PubChem BioAssay (NCI).
# Several values for one entry are separate records, joined by “and”; a condition that tells them apart may be missing. Identical values can stand only once.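 Compound exposure: 48 hours, 5 concentrations, 96-well plates. The concentration for full growth arrest is given as TGI.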
# Key:
# Assay in all cases: NCI tumour cell line growth inhibition, 48 h
# SF-295 CNS = system: SF-295 CNS
# ACHN renal = system: ACHN renal
# HL-60(TB) leukemia = system: HL-60(TB) leukemia
# RXF 393 renal = system: RXF 393 renal
# OVCAR-5 ovarian = system: OVCAR-5 ovarian
# HOP-62 NSCLC = system: HOP-62 NSCLC
Structure (SMILES),TGI (SF-295 CNS) [µM],TGI (ACHN renal) [µM],TGI (HL-60(TB) leukemia),TGI (RXF 393 renal),TGI (OVCAR-5 ovarian) [µM],TGI (HOP-62 NSCLC) [µM]
COc1cc(O)c2c(=O)cc(-c3ccc(O)cc3O)oc2c1CC=C(C)C,30.2,30.4,34.4 µM,19.6 µM,> 100,–
Nc1ncnn2c(C3OC(CO)C(O)C3O)ccc12 (centres undefined),3.01,0.645,0.328 µM,0.667 µM,4.54,1.48
COC1(OC)c2no[n+]([O-])c2CCC1O (centres undefined),> 100,> 100,–,> 100 µM,> 100,> 100
COC(=O)/C=C(/C)n1nc2ccccc2n1,> 100,> 100,–,> 100 µM,> 100,> 100
CC[C@]1(Cc2ccc(OC)c(OC)c2)C=[N+]([O-])O[C@H](OC2CCCC2(c2ccccc2)c2ccccc2)[C@@H]1OC(=O)c1ccccc1 (some centres undefined),> 65.4,> 34.8,> 100 µM,> 25.9 µM,> 100,62.3
Cc1nc2ccccc2n1COC(Cn1ccnc1)c1ccc(Cl)cc1Cl (centres undefined),> 100,> 100,85.4 µM,–,> 100,> 100
COCCOC(=O)c1c(C)n([O-])c2cc(Cl)c(Cl)cc2[n+]1=O,84.2,29.3,32 µM,> 100 µM,34.6,35
C=C(C)C1=CCC[C@]2(C1)N=C(OC)[C@@H](C(C)C)N=C2OC,> 100,> 100,87.9 µM,–,> 100,> 100
O=C(CN1CCCCC1)Nc1ccc2sc3ccccc3c(=O)c2n1,36.6,33.4,68.9 µM,–,38.9,33.3
CSc1nc(C#N)c(/N=C\N(C)C)n1C,> 100,> 100,> 100 µM,> 100 µM,> 100,> 100
COc1ccc(-c2c(C#N)c(N)n(C3OCC(OC(C)=O)C(OC(C)=O)C3OC(C)=O)c(=S)c2C#N)cc1 (centres undefined),> 100,> 100,36.5 µM and 35.9 µM,> 100 µM and 98.2 µM,> 100,> 100
O=C(CC(=O)N(C(=O)/C=C\c1ccccc1)c1ccc(Cl)cc1)N1N=C(c2ccccc2)C(N=Nc2cccc([N+](=O)[O-])c2)C1=O (centres undefined),25.2,> 100,11.1 µM,36.9 µM,> 100,40.8
O=C(ON=C1c2ccccc2C(Br)C(Br)c2ccccc21)c1cc([N+](=O)[O-])cc([N+](=O)[O-])c1 (centres undefined),> 88.9,45,0.422 µM,36.6 µM,43.8,34.3
CCOC(CN(C)C(=O)Nc1cccc2ccccc12)OCC,> 10,> 10,> 10 µM,> 10 µM,–,> 10
O=C1/C(=C/c2cccc(F)c2)CCCc2ccccc21,29.7,33.1,62.9 µM,–,28.3,27.4
Cc1csc2[n+]1C(=O)/C(=C\c1ccc([N+](=O)[O-])cc1)S2,65.1,65.7,64.4 µM,82.6 µM,> 100,82.2

Structure (SMILES),TGI (SF-295 CNS) [µM],TGI (ACHN renal) [µM],TGI (HL-60(TB) leukemia),TGI (RXF 393 renal),TGI (OVCAR-5 ovarian) [µM],TGI (HOP-62 NSCLC) [µM]
CCOC(=O)c1cnc2oc3ccc(O)cc3c2c1C,> 100,> 100,> 100 µM,> 100 µM,> 100,–
COC(=O)C1(CCC(C)=O)CCCCCC1=O (centres undefined),> 100,> 100,–,> 100 µM,> 100,> 100
O=C1/C(=C\c2ccc(O)cc2)CCC/C1=C/c1ccc(Cl)c(Cl)c1,10.1,12.1,4.94 µM,5.8 µM,34.3,16.1
CC(C)OC(=O)c1ccc(NCc2cc(O)ccc2O)cc1Cl,34.6,7.83,–,13.1 µM,26.6,> 64.5
CC(C)Cn1cnc2c(NCC(C)O)nc3ccccc3c21 (centres undefined),> 100,> 100,> 100 µM,> 100 µM,> 100,> 100
NC(N)=N/N=C/c1c(-c2ccc(Cl)cc2)nc2sccn12,3.13,2.82,–,2.95 µM,7.03,3.56
Cc1ccc(S(=O)(=O)n2cc(-c3cc(C(F)(F)F)ccn3)c3cc(Br)ccc32)cc1,67.7,24.3,> 100 µM,45.1 µM,> 100,29.5
C=CCNC1=C2C[C@@H](C)C[C@@H](OC)[C@H](OC(=O)CCN)[C@H](C)/C=C(\C)[C@@H](OC(N)=O)[C@H](OC)/C=C\C=C(/C)C(=O)NC(=CC1=O)C2=O,14.1,25.2,17.9 µM,15.1 µM,23.3,17.5
Cn1c(=O)c(Br)c(C=O)n(CCO[N+](=O)[O-])c1=O,–,13.2,4.46 µM,–,13.8,37.5
COC(=O)C1(C(=O)OC)Cc2ccc(OC)cc2C2=C1C(=O)c1ccccc1C2=O,8.44,15.1,> 21.1 µM,–,20.2,21.4
O=[N+]([O-])/C(C(Cl)=C(Cl)Cl)=C(\N1CCOCC1)n1nnc2ccccc21,34.9,34.9,–,–,44,36.2
COC(=O)c1ccc(C)cc1CC1Cc2cc(C)ccc2C1=O (centres undefined),> 100,> 100,> 100 µM,–,> 100,> 100
[N-]=[N+]=Nc1ccccc1C(=O)N1C(=O)c2ccccc2C(=O)N(C(=O)c2ccccc2N=[N+]=[N-])c2ccccc21,> 100,> 100,–,76.6 µM,> 100,81
CCOC(=O)/C(C#N)=C\c1ccc(N(CCC(=O)O)CCC(=O)O)c(I)c1,> 10,> 10,> 10 µM,> 10 µM,–,> 10
CCc1n[nH]c(=O)n1/N=C/c1c(O)ccc2ccccc12,> 100,> 100,–,> 100 µM,> 100,> 100
O=C1C(Cl)C2(CC(/C=C/c3ccccc3Cl)=NN2c2cccc(S(=O)(=O)O)c2)N1c1nc2ccccc2s1 (centres undefined),–,> 100,> 100 µM,> 100 µM,> 100,–
